According to patent US20260274851A1, “MODULATORS OF TRPML, THEIR COMPOSITIONS AND METHODS OF USE” (Caraway Therapeutics, Inc., priority 2023, published 2026):

Assays:
[1] = molecular target: T1, Human TRPML3 (Homo sapiens, UniProt Q8TDD5); experiment: Fluorescent TRPML3 assay (as for TRPML1); type: cell-based; conditions: as TRPML1 assay with TRPML3 subtype
T1 construct: expressed in transfected cells
T1 sequence (Q8TDD5 1-553): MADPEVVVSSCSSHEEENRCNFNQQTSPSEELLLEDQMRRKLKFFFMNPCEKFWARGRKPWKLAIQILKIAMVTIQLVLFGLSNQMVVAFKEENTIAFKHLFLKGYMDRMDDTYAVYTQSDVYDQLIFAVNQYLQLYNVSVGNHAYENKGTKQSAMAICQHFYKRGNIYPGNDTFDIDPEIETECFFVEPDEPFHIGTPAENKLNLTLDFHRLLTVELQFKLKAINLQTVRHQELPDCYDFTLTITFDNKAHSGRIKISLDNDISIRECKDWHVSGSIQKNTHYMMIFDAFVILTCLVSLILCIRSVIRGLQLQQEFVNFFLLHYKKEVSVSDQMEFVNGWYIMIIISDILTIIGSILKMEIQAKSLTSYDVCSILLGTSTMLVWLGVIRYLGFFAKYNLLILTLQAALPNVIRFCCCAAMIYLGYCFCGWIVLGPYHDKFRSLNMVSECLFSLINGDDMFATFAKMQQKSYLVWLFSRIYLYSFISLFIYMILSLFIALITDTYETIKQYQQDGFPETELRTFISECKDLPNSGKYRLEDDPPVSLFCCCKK
Experimental: (§1) HEK-293 Trex cells were stably transfected with a construct consisting of the human coding sequence for TRPML1 cloned into the tet-inducible plasmid pCDNA5 T/O. Mutations were introduced into the TRPML1 sequence to facilitate expression on the cell surface (Silvia Vergarajauregui. Rosa Puertollano Traffic. 2006 March: 7(3): 337-353). Briefly, the cells are cultured in 150 mm round tissue culture dishes containing 20 mL of media. The day before the assay the cells are rinsed with DPBS—Ca —Mg and then treated briefly with Trypsin-EDTA. The Trypsin-EDTA is diluted with growth media, and cells are counted. 38×10^6 cells are re-plated into 150 mm round tissue culture dishes in media containing 0.5 g/mL doxycycline to induce expression of hTRPML1.
(§2) The day of the experiment cells are lifted from the plates as above and collected by centrifugation. The cells are then suspended in dye loading buffer consisting of Ringer's solution supplemented with 0.1% Pluronic Acid and 1 micromolar Fluo4-AM dye. Cells are loaded for ~60 minutes in the dark with occasional mixing. The cells are collected by centrifugation, the loading media aspirated, and the cells resuspended in 25 mL Ringer's solution and incubated ~60 minutes in the dark. The cells are again collected by centrifugation, rinsed in Ringer's Solution and resuspended to 0.2×10^6 cells/mL in modified Ringer's solution containing 10 mM calcium.
(§3) Compounds are dissolved to a concentration of 10 millimolar with DMSO. Compound plates are created by dispensing compounds into 384 well black wall clear bottom plates (Greiner 781091). Positive and negative controls are included on each plate. Typically, different amounts of each compound are tested ranging from 100 nanoMoles (20 micromolar final concentration) decreasing in half-log steps to 31 picoMoles (6 nanomolar final concentration). Each concentration is typically tested in triplicate.
(§4) 50 microliters of dye-loaded cells are dispensed into each well of the compound assay plate created above. The fluorescence in each well is then determined with an excitation wavelength of 480 nm and an emission wavelength of 540 nm using either a Molecular Devices SpectraMax multimode plate reader or a Hamamatsu FDSS/uCell plate imager.
(§5) The resulting fluorescence for each well is exported as an ascii file and loaded into our LIMS for analysis. The percent activity of each compound at each concentration is determined by comparison to the positive and negative control wells included in each plate.
Assays for TRPML2 and TRPML3 were performed as above for TRPML1, by substituting the appropriate TRPML2 or TRPML3 subtype for the TRPML1.
(§6) EC50 values were calculated using a non-linear regression of Prism. In the table, “A” indicates an EC50 of less than 100 nM, “B” indicates an EC50 range from 100 nM to 500 nM; “C” indicates an EC50 range from 500 nM to 2 μM; and “D” indicates an EC50 greater than 2 μM.

[2] = molecular target: Human TRPML1 (Homo sapiens, UniProt Q9GZU1); experiment: Fluorescent TRPML1 assay (Fluo4 calcium fluorescence, HEK-293 Trex cells); type: cell-based; conditions: HEK-293 Trex cells expressing surface-directed hTRPML1, Fluo4 fluorescence
Chain of Human TRPML1 (Q9GZU1 whole entry L15A/L16A/L577A/L578A, form open): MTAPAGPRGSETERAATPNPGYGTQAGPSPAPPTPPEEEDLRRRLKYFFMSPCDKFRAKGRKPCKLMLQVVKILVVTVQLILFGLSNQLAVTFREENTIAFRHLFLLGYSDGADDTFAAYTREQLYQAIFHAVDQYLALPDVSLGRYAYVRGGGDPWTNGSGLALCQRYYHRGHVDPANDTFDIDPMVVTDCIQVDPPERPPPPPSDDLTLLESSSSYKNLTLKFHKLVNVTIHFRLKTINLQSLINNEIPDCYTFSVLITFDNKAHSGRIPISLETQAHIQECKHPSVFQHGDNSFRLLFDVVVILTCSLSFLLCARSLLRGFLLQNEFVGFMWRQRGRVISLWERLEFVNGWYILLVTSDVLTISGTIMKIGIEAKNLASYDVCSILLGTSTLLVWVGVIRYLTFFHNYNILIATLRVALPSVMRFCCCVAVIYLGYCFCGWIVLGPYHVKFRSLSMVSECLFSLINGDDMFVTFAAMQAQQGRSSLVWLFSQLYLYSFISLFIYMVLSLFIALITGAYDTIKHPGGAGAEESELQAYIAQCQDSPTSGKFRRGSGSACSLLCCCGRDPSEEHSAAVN
Experimental: as §1, §2, §3, §4, §5, §6

[3] = molecular target: T2, Human TRPML2 (Homo sapiens, UniProt Q8IZK6); experiment: Fluorescent TRPML2 assay (as for TRPML1); type: cell-based; conditions: as TRPML1 assay with TRPML2 subtype
T2 construct: expressed in transfected cells
T2 sequence (Q8IZK6 1-566): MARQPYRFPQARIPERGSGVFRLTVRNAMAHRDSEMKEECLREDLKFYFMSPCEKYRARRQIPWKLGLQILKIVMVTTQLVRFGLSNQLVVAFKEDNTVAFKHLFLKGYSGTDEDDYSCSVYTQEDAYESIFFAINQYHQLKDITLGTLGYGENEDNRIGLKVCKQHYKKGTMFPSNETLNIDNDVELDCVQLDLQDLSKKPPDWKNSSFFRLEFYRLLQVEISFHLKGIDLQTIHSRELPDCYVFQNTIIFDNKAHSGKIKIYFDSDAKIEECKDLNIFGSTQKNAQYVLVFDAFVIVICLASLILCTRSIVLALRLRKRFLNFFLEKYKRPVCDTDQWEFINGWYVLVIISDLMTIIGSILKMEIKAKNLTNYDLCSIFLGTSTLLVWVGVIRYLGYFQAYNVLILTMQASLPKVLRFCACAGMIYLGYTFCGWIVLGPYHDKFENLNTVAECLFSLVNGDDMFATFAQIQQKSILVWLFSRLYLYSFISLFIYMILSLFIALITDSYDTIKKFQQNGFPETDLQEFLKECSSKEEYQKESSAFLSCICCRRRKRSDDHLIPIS
Experimental: as §1, with “38×10^6 cells are re-plated into 150 mm round tissue culture dishes in media containing 0.5 g/mL doxycycline to induce expression of hTRPML1.” left out
as §4
The resulting fluorescence for each well is exported as an ascii file and loaded into our LIMS for analysis. The percent activity of each compound at each concentration is determined by comparison to the positive and negative control wells included in each plate. […]
EC50 values were calculated using a non-linear regression of Prism. […]

[4] = system: TRPMLs; conditions: high concentrations needed; background statement; cited from earlier work

Row | SMILES | EC50 [1] [nM] | EC50 [2] [nM] | EC50 [3] [nM] | Concentration needed to effectively activate TRPMLs [4]
1 | COC(C)(C)C(=O)N1C[C@H](C)N(c2ncnc3c2c(-c2ccccc2F)cn3-c2cccc(F)c2)C[C@H]1C [Compound 103, 1-((2R,5S)-4-(5-(2-fluorophenyl)-7-(3-fluorophenyl)-7H-pyrrolo[2,3-d]pyrimidin-4-yl)-2,5-dimethylpiperazin-1-yl)-2-methoxy-2-methylpropan-1-one] | < 100 | < 100 | 100 to 500 | –
2 | C[C@@H]1CN(c2ncnc3c2c(-c2ccccc2F)cn3-c2cc(F)cc(F)c2)[C@@H](C)CN1C(=O)C(C)(C)O [Compound 104, 1-((2R,5S)-4-(7-(3,5-difluorophenyl)-5-(2-fluorophenyl)-7H-pyrrolo[2,3-d]pyrimidin-4-yl)-2,5-dimethylpiperazin-1-yl)-2-hydroxy-2-methylpropan-1-one] | > 2000 | 500 to 2000 | – | –
3 | C[C@@H]1CN(c2ncnc3c2c(-c2ccccc2F)cn3-c2cccc(Cl)c2)[C@@H](C)CN1C(=O)C(C)(C)O [Compound 105, 1-((2R,5S)-4-(7-(3-chlorophenyl)-5-(2-fluorophenyl)-7H-pyrrolo[2,3-d]pyrimidin-4-yl)-2,5-dimethylpiperazin-1-yl)-2-hydroxy-2-methylpropan-1-one] | 500 to 2000 | 100 to 500 | – | –
4 | CC1CC(C)(C)N(C(=O)CN2C(=O)c3ccccc3C2=O)c2ccccc21 (stereo not drawn) [ML-SA1] | – | – | – | ~ 10 μM

Second part, led by results:

Row | EC50 [1] [nM] | EC50 [2] [nM] | EC50 [3] [nM] | SMILES | Concentration needed to effectively activate TRPMLs [4]
5 | > 2000 | 100 to 500 | – | C[C@@H]1CN(c2ncnc3c2c(-c2ccccc2)cn3-c2cccc(C#N)c2)[C@@H](C)CN1C(=O)C(C)(C)O [Compound 101, 3-(4-((2S,5R)-4-(2-hydroxy-2-methylpropanoyl)-2,5-dimethylpiperazin-1-yl)-5-phenyl-7H-pyrrolo[2,3-d]pyrimidin-7-yl)benzonitrile] | –
6 | > 2000 | 100 to 500 | – | C[C@@H]1CN(c2ncnc3c2c(-c2ccccc2F)cn3-c2cccc(C#N)c2)[C@@H](C)CN1C(=O)C(C)(C)O [Compound 102, 3-(5-(2-fluorophenyl)-4-((25,5R)-4-(2-hydroxy-2-methylpropanoyl)-2,5-dimethylpiperazin-1-yl)-7H-pyrrolo[2,3-d]pyrimidin-7-yl)benzonitrile] | –
